Experimental findings from US5244602A, “Photochromic naphthopyrans” (PPG Industries, Inc., priority 1990, dated 1993) are described below.

SMILES strings stand for the structures.

Common to all, as to assay type: physicochemical
A short description of data set [1]: Coloring and bleaching behaviour. To be noted: for bleaching: room temperature.
Data set [2] can be described thus: Absorption maximum of naphthopyran imbibed into polymerizate. To be noted: imbibed in poly[diethylene glycol bis(allyl carbonate)]; UV 365 nm lamp. An excerpt: (§1) The naphthopyran compounds of Examples 1-11 were imbibed into separate polymerizates of poly[diethylene glycol bis(allyl carbonate)]. On exposure to ultraviolet light from a 365 nm lamp, the imbibed polymer samples elicited a photochromic response which faded on removal of the UV light source.

Data set [3] in a line: Fade rate (T 1/2) of naphthopyran imbibed into polymerizate after UV activation. To be noted: At Room Temperature; imbibed in poly[diethylene glycol bis(allyl carbonate)]; UV 365 nm lamp.
Source text: as §1
^1. At Room Temperature

Regarding `C1=CC(c2ccccc2)(c2ccccc2)Oc2ccc3ccccc3c21` [3,3-diphenyl-3H-naphtho[2,1-b]pyran], in data set [1], the “color change on exposure to near ultraviolet” value was “change color on exposure to the near ultraviolet” and the bleaching result is “bleaches too rapidly for use in an ophthalmic lens”.

Consider `C1=CC(c2ccccc2)(c2ccccc2)Oc2c(Oc3ccccn3)cc3ccccc3c21` [Example 2, 5(2-pyridyloxy)-3,3-diphenyl-3H naphtho[2,1-b]pyran], for which the “Absorption λ Max” value in data set [2] came out at 440 NM. Moreover, the “Fade Rate T 1/2” value in data set [3] is 1.57 min.

For `O=C(CCl)Oc1cc2ccccc2c2c1OC(c1ccccc1)(c1ccccc1)C=C2` [Example 10, 5-chloroacetoxy-3,3-diphenyl-3H-naphtho[2,1-b]pyran], in data set [2], the “Absorption λ Max” value was found to be 458 NM. For the same compound, the “Fade Rate T 1/2” value in data set [3] came to 1.6 min.

`CNC(=O)Oc1cc2ccccc2c2c1OC(c1ccccc1)(c1ccccc1)C=C2` [Example 6, 5-methylcarbamyloxy-3,3-diphenyl-3H-naphtho[2,1-b]pyran]: the “Absorption λ Max” value in data set [2] stood at 446 NM. For the same compound, the “Fade Rate T 1/2” value in data set [3] was 1.67 min.

Regarding `COc1ccc(C2(c3ccccc3)C=Cc3c(c(OC(C)=O)cc4ccccc34)O2)cc1` (stereo not drawn) [Example 3, 5-acetoxy-3-phenyl-3-p-methoxy phenyl-3H-naphtho[2,1-b]pyran], the “Absorption λ Max” value in data set [2] came out at 483 NM. Also, the “Fade Rate T 1/2” value in data set [3] came to 1.05 min.

Regarding `COc1ccc(C2(c3ccccc3)C=Cc3c(c(OC(=O)c4ccccc4)cc4ccccc34)O2)cc1` (stereo not drawn) [Example 4, 5-benzoyloxy-3-phenyl-3-p-methoxy phenyl-3H-naphtho[2,1-b]pyran], in data set [2], the “Absorption λ Max” value was 483 NM. The “Fade Rate T 1/2” value in data set [3] stood at 3.5 min.

As for `Cc1ccc(C2(c3ccc(C)cc3)C=Cc3c(c(OC(=O)CCl)cc4ccccc34)O2)cc1` [Example 11, 5-chloroacetoxy-3,3-p-methylphenyl-3H-naphtho[2,1-b]pyran], in data set [2], the “Absorption λ Max” value came to 476 NM. Further, in data set [3], the “Fade Rate T 1/2” value amounted to 1.75 min.

On to `C1=CC(c2ccccc2)(c2ccccc2)Oc2c1ccc1ccccc21` [2,2-diphenyl-2H-naphtho[1,2-b] pyrin], for which, in data set [1], the “color change on exposure to near ultraviolet” value was “colors on exposure to near ultraviolet light at room temperature” and the bleaching result is “does not bleach in a reasonable period of time”.

On to `CC(=O)Oc1cc2ccccc2c2c1OC(c1ccc(C)cc1)(c1ccc(C)cc1)C=C2` [Example 9, 5-acetoxy-3,3-di(p-methylphenyl)-3H-naphtho[2,1-b]pyran], for which the “Absorption λ Max” value in data set [2] was found to be 470 NM. For the same compound, the “Fade Rate T 1/2” value in data set [3] stood at 2.23 min.

Regarding `CC(=O)Oc1cc2ccccc2c2c1OC(c1ccccc1)(c1ccccc1)C=C2` [Example 1, 5-acetoxy-3,3-diphenyl-3H-naphtho[2,1-b]pyran], in data set [2], the “Absorption λ Max” value stood at 455 NM. The “Fade Rate T 1/2” value in data set [3] was 1.35 min.

In the case of `CC(=O)COc1cc2ccccc2c2c1OC(c1ccccc1)(c1ccccc1)C=C2` [Example 8, 5-(2-acetonyloxy)-3,3-diphenyl-3H-naphtho[2,1-b]pyran], the “Absorption λ Max” value in data set [2] was found to be 434 NM. Moreover, the “Fade Rate T 1/2” value in data set [3] worked out at 1.6 min.

For `O=C(Oc1cc2ccccc2c2c1OC(c1ccccc1)(c1ccccc1)C=C2)c1ccccc1` [Example 5, 5-benzoyloxy-3,3-diphenyl-3H-naphtho[2,1-b]pyran], in data set [2], the “Absorption λ Max” value stood at 447 NM. The “Fade Rate T 1/2” value in data set [3] is 2.3 min.
